Columns and labels:
Assay type in all cases: in vivo
[1] = tested on: Frankliniella occidentalis; assay: Two-plant choice test of thrips repellency after spraying (Examples 1 and 2); conditions: for repellency against thrips (number of thrips on plant vs water control): 100 μM solution sprayed; for repellency against thrips (number of thrips on plant vs water control) / repellency against Frankliniella occidentalis: thrips released two days after, counted 24 h later; for repellency against Frankliniella occidentalis: 100 μM PDJ sprayed
Procedure: Then, 100 μM PDJ solution was directly sprayed on one of the two plant individuals by use of a spraying device. On the other one of the two plant individuals, only water was sprayed similarly. This plant individual on which only water was sprayed was a control. Two days after the above treatment, 30 female adult thrips of Frankliniella occidentalis were released at a middle point between the two plant individuals. Twenty-four hours after that release of Frankliniella occidentalis, the number of thrips on each plant individual was counted so that which one of the plant individuals the thrips had moved to was found. With use of 100 μM JA solution, a similar experiment was carried out. Further, similar experiments with use of the 100 μM PDJ solution and the 100 μM JA solution were carried out on tomato (Solanum lycopersicum) three weeks after seeding.
(§1) Then, 100 μM PDJ solution was sprayed on an entire aerial part of only one of the two plant individuals by use of a spraying device. On the other one of the two plant individuals, only water was sprayed by a similar method. This plant individual on which only water was sprayed was a control. Two days after the above spraying, 30 female adult thrips of Frankliniella occidentalis were released at a middle point between the two plant individuals. Twenty-four hours after that release of Frankliniella occidentalis, the number of thrips on each plant individual was counted so that which one of the plant individuals the thrips had moved to was found.
Further, the target plant was changed to crown daisy (Glebionis coronaria) of the family Asteraceae, and repellency against thrips was studied similarly.

[2] = tested on: Thrips tabaci Lindeman; assay: Two-plant choice test of thrips repellency after spraying (Example 3); conditions: 100 μM PDJ sprayed, thrips released two days after, counted 24 h later
Procedure: Then, 100 μM PDJ was sprayed on an entire aerial part of only one of the two plant individuals by use of a spraying device. On the other one of the two plant individuals, only water was sprayed by a similar method. This plant individual on which only water was sprayed was a control. Two days after the above spraying, 30 female adult thrips of Thrips tabaci Lindeman were released at a middle point between the two plant individuals. Twenty-four hours later, the number of Thrips tabaci Lindeman on each plant individual was counted so that which one of the plant individuals the thrips had moved to was found. As a result, with regard to the green pepper (bell pepper) (Capsicum annuum L. ‘grossum’), an attachment rate of Thrips tabaci Lindeman was approximately 40% relative to that of the control. Meanwhile, with regard to cabbage (Brassica oleracea var. capitata), an attachment rate of Thrips tabaci Lindeman was approximately 40% relative to that of the control.

[3] = tested on: Frankliniella intonsa; assay: Two-plant choice test of thrips repellency after spraying (Example 4); conditions: 100 μM PDJ sprayed, thrips released two days after, counted 24 h later
Procedure: as §1, with “intonsa” for “occidentalis”, “intonsa,” for “occidentalis,”

[4] = tested on: Frankliniella occidentalis; assay: Repeated spraying on tomato, thrips count on third and higher-order true leaves (Example 5); conditions: counted forty days after release
Procedure: Then, 100 μM PDJ solution was directly prayed on an entire aerial part of only one of the two plant individuals by use of a spraying device. The above spraying was carried out 3 times, 4 times or 5 times at intervals of 5 to 7 days. On the other one of the two plant individuals, only water was sprayed by a similar method. This plant individual on which only water was sprayed was a control. Four days after the last spraying, 30 female adult thrips of Frankliniella occidentalis were released at a middle point between the two plant individuals. Forty days after that release of Frankliniella occidentalis, the number of thrips on the third and higher-order true leaves was counted. […] In the case of the plant individual on which the PDJ solution was sprayed 3 times, the total number of thrips attached to the third and higher-order true leaves was approximately 20% relative to that of the control. In the case of the plant individual on which the PDJ solution was sprayed 4 times or 5 times, the total number of thrips attached to the third and higher-order true leaves was 0% relative to that of the control. In this way, it was clarified that in a case where spraying is carried out 4 times or 5 times at intervals of 5 days to 7 days, repellency against thrips is higher than that in a case where spraying is carried out 3 times.

[5] = tested on: Frankliniella occidentalis; assay: Spraying time relative to development of fourth true leaf of tomato, thrips count (Examples 6 and 7); conditions: counted six days after release
Procedure: Then, 100 μM PDJ solution was sprayed on an entire aerial part of only one of the two plant individuals by use of a spraying device. On the other one of the two plant individuals, only water was sprayed by a similar method. This plant individual on which only water was sprayed was a control. The above spraying was carried out at time points 3 days, 7 days, 10 days and 15 days after the start of development of the fourth true leaf. Four days after the above spraying, 30 female adult thrips of Frankliniella occidentalis were released at a middle point between the two plant individuals. Six days after that release of Frankliniella occidentalis, the number of thrips on the fourth true leaf was counted. […] The number of thrips attached to the fourth true leaf was approximately 5% of that of the control in the case of the spraying carried out at the time point 3 days after the start of the development of the fourth true leaf, approximately 10% of that of the control in the case of the spraying carried out at the time point 7 days after the start of the development, approximately 40% of that of the control in the case of the spraying carried out at the time point 10 days after the start of the development, and approximately 50% of that of the control in the case of the spraying carried out at the time point 15 days after the start of the development. In this way, it was clarified that in a case where the spraying was carried out within 7 days from the start of development of a new leaf of a plant, repellency against thrips given to the plant is higher than that in a case where spraying is carried out more than 7 days after the start of the development. In a greenhouse whose room temperature was kept in a range of 20° C. to 25° C., two plant individuals of tomato (Solanum lycopersicum) (approximately 1 to 1.5 months after seeding), which had developed 3 true leaves, were placed apart from each other such that a distance of […] was provided and kept between these plant individuals. Then, 100 μM PDJ solution was sprayed on an entire aerial part of only one of the two plant individuals by use of a spraying device. At this time point, the fourth true leaf was not yet developed. On the other one of the two plant individuals, only water was sprayed by a similar method. This plant individual on which only water was sprayed was a control. Four days after the above spraying, 30 female adult thrips of Frankliniella occidentalis were released at a middle point between the two plant individuals. Six days after that release of Frankliniella occidentalis, the number of thrips on the fourth true leaf was counted. […] The number of thrips attached to the fourth true leaf was approximately 100% of that of the control.

[6] = 100 μM PDJ sprayed when fourth true leaf was not yet developed (Example 7)

Question: Which results are given for prohydrojasmon [PDJ]?
Answer: repellency against thrips (number of thrips on plant vs water control) ([1]; Arabidopsis thaliana): can give repellency against thrips; repellency against Frankliniella occidentalis ([1]; cabbage): sufficient repellency; repellency against Frankliniella occidentalis ([1]; chrysanthemum): sufficient repellency; repellency against thrips ([1]; crown daisy (Glebionis coronaria), studied similarly to Example 2): repellency against thrips is given; repellency against Frankliniella occidentalis ([1]; cucumber): sufficient repellency; repellency against Frankliniella occidentalis ([1]; green pepper): sufficient repellency; repellency against Frankliniella occidentalis ([1]; strawberry): sufficient repellency; repellency against thrips (number of thrips on plant vs water control) ([1]; tomato (Example 1)): can give repellency against thrips; repellency against Frankliniella occidentalis ([1]; tomato (Example 2)): sufficient repellency; attachment rate of Thrips tabaci Lindeman relative to that of the control ([2]; cabbage): approximately 40%; attachment rate of Thrips tabaci Lindeman relative to that of the control ([2]; green pepper): approximately 40%; repellency against Frankliniella intonsa ([3]; cabbage): sufficient repellency; repellency against Frankliniella intonsa ([3]; chrysanthemum): sufficient repellency; repellency against Frankliniella intonsa ([3]; cucumber): sufficient repellency; repellency against Frankliniella intonsa ([3]; green pepper): sufficient repellency; repellency against Frankliniella intonsa ([3]; strawberry): sufficient repellency; repellency against Frankliniella intonsa ([3]; tomato): sufficient repellency; total number of thrips attached to the third and higher-order true leaves relative to that of the control ([4]; 100 μM PDJ sprayed 3 times at intervals of 5 to 7 days): approximately 20%; total number of thrips attached to the third and higher-order true leaves relative to that of the control ([4]; 100 μM PDJ sprayed 4 times at intervals of 5 to 7 days): 0%; total number of thrips attached to the third and higher-order true leaves relative to that of the control ([4]; 100 μM PDJ sprayed 5 times at intervals of 5 to 7 days): 0%; number of thrips attached to the fourth true leaf, of that of the control ([5]; 100 μM PDJ sprayed 3 days after start of development of fourth true leaf): approximately 5%; number of thrips attached to the fourth true leaf, of that of the control ([5]; 100 μM PDJ sprayed 7 days after start of development of fourth true leaf): approximately 10%; number of thrips attached to the fourth true leaf, of that of the control ([5]; 100 μM PDJ sprayed 10 days after start of development of fourth true leaf): approximately 40%; number of thrips attached to the fourth true leaf, of that of the control ([5]; 100 μM PDJ sprayed 15 days after start of development of fourth true leaf): approximately 50%; number of thrips attached to the fourth true leaf, of that of the control [5, 6]: approximately 100%; total number of thrips attached to the first to third true leaves vs control [5, 6]: much smaller than that of the control

Question: What does the source list for `CC/C=C\CC1C(=O)CCC1CC(=O)OC` (stereo not shown) [JA, methyl jasmonate, reference compound]?
Answer: repellency against thrips (number of thrips on plant vs water control) ([1]; Arabidopsis thaliana): can give repellency against thrips; repellency against thrips (number of thrips on plant vs water control) ([1]; tomato (Example 1)): can give repellency against thrips
